Results on 33 compounds are retold here after US8822503B2, “2-pyridone compounds” (Taisho Pharmaceutical Co., Ltd, priority 2009, dated 2014).

Usually EC50 stands for the midpoint of the concentration-response curve. Low values mean greater potency, high ones weaker potency.

Each structure is given as a SMILES string.

This test has as its target T1, human liver GK (Homo sapiens, UniProt P35557).
T1 construct: GST (glutathione S-transferase) (N); made in house; host or cells: E. coli
T1 sequence (P35557 1-466 isoform P35557-2): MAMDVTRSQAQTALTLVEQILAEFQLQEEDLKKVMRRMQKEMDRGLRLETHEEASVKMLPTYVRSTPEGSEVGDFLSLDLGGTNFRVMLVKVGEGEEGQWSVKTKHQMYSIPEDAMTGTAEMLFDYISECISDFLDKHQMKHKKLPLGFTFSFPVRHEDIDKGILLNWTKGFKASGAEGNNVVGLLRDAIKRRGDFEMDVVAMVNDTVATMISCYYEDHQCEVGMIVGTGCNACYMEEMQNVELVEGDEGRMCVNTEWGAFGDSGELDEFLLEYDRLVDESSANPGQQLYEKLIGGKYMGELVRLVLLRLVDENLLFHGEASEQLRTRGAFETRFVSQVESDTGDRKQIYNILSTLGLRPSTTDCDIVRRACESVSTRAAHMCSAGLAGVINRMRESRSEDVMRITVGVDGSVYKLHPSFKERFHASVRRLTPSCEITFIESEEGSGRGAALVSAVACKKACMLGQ
Kind of test: GK activation test. It is filed as biochemical. The conditions noted are these: test compound concentration needed to activate 50% of maximum activation ability; 4 mM 14C-labeled glucose, 2 mM ATP, room temperature, 20 minutes. The method in brief:
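GST-tagged human liver GK from E. coli (0.24 μg/well) with 4 mM 14C-glucose, 2 mM ATP in Hepes-KOH pH 7.1, KCl, MgCl2, DTT, 1% DMSO, 20 min room temperature. Labeled glucose 6-phosphate captured on anion resin, eluted and counted. EC50 = concentration giving half of maximal activation.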
`O=C1CC[C@H](/C=C(\c2ccc(C(F)F)cc2)c2ccc(C3CC3)c(=O)[nH]2)N1` [Example 4-273, 3-Cyclopropyl-6-{(E)-1-[4-(difluoromethyl)phenyl]-2-[(2R)-5-oxopyrrolidin-2-yl]ethenyl}pyridin-2(1H)-one]: the EC50 was in the range of 10 to 500 nM.
To `CCOc1ccc(C(C[C@H]2CCC(=O)N2)c2ccc(Cl)c(=O)[nH]2)cc1C` (single isomer, unassigned) [Example 4-240] belongs 3000 to 10000 nM; to `CS(=O)(=O)c1ccc(/C(=C\C2CCCC2)c2ccc(C3CC3)c(=O)[nH]2)cc1` [Example 1-6, 6-{(E)-2-Cyclopentyl-1-[4-(methylsulfonyl)phenyl]ethenyl}-3-cyclopropylpyridin-2(1H)-one], 10 to 500 nM; to `CC(C)CCCOc1ccc(/C(=C\[C@H]2CCC(=O)N2)c2ccc(Cl)c(=O)[nH]2)cc1Cl` [Example 4-21, 3-Chloro-6-{(E)-1-{3-chloro-4-[(4-methylpentyl)oxy]phenyl}-2-[(2R)-5-oxopyrrolidin-2-yl]ethenyl}pyridin-2(1H)-one], 10 to 500 nM.
To `O=C1CC[C@H](CC(c2ccc(S(=O)(=O)C3CC3)c(Cl)c2)c2ccc(Cl)c(=O)[nH]2)N1` (single isomer, unassigned) [Example 4-305] belongs 3000 to 10000 nM; to `CC(C)Oc1ccc(/C(=C/[C@H]2CCC(=O)N2)c2ccc(C(C)(C)C)cc2)[nH]c1=O` [Example 4-166, 6-{(E)-1-(4-tert-Butylphenyl)-2-[(2R)-5-oxopyrrolidin-2-yl]ethenyl}-3-(propan-2-yloxy)pyridin-2(1H)-one], 500 to 3000 nM; to `CS(=O)(=O)c1ccc(/C(=C\CCCO)c2ccc(C3CC3)c(=O)[nH]2)cc1` [Example 1-97, 3-Cyclopropyl-6-{(1E)-5-hydroxy-1-[4-(methylsulfonyl)phenyl]pent-1-en-1-yl}pyridin-2(1H)-one], 500 to 3000 nM.
`Cc1cc(/C(=C\[C@H]2CCC(=O)N2)c2ccc(C3CC3)c(=O)[nH]2)ccc1S(=O)(=O)C1CC1` [Example 4-54, 3-Cyclopropyl-6-{(E)-1-[4-(cyclopropylsulfonyl)-3-methylphenyl]-2-[(2R)-5-oxopyrrolidin-2-yl]ethenyl}pyridin-2(1H)-one] came in with an EC50 of 10 to 500 nM.
The same measure for `CC(C)(C)c1ccc(/C(=C\[C@H]2CCC(=O)N2)c2ccc(C3CC3)c(=O)[nH]2)cc1` [Example 4-83, 6-{(E)-1-(4-tert-Butylphenyl)-2-[(2R)-5-oxopyrrolidin-2-yl]ethenyl}-3-cyclopropylpyridin-2(1H)-one]: 10 to 500 nM.
To `CC(C)(C)c1ccc(C(C[C@H]2CCC(=O)N2)c2ccc(Cl)c(=O)[nH]2)cc1` (single isomer, unassigned) [Example 4-70] belongs 500 to 3000 nM; to `CS(=O)(=O)c1ccc(C(CC2CCCC2)c2ccc(C3CC3)c(=O)[nH]2)cc1` (stereo not drawn) [Example 2-10, 6-{2-Cyclopentyl-1-[4-(methylsulfonyl)phenyl]ethyl}-3-cyclopropylpyridin-2(1H)-one], 500 to 3000 nM; to `O=C1CCC(CC(c2ccc(C(F)F)cc2)c2ccc(C3CC3)c(=O)[nH]2)N1` (single isomer, unassigned) [Example 4-340, 3-Cyclopropyl-6-[1-[4-(difluoromethyl)phenyl]-2-(5-oxopyrrolidin-2-yl)ethyl]pyridin-2(1H)-one], 500 to 3000 nM.
To `CC(C)(C)c1ccc(/C(=C\[C@H]2CCC(=O)N2)c2ccc(Cl)c(=O)[nH]2)cc1` [Example 4-18, 6-{(E)-1-(4-tert-Butylphenyl)-2-[(2R)-5-oxopyrrolidin-2-yl]ethenyl}-3-chloropyridin-2(1H)-one] belongs 10 to 500 nM; to `CSc1ccc(C(CC2CCCC2)c2ccc(C)c(=O)[nH]2)cc1` (stereo not drawn) [Example 2-1, 6-{2-Cyclopentyl-1-[4-(methylsulfanyl)phenyl]ethyl}-3-methylpyridin-2(1H)-one], 500 to 3000 nM.
Turning to `CCOc1ccc(/C(=C\C2CCCC2)c2ccc(CC)c(=O)[nH]2)cc1Cl` [Example 1-17, 6-[(E)-1-(3-Chloro-4-ethoxyphenyl)-2-cyclopentylethenyl]-3-ethylpyridin-2(1H)-one], the EC50 was 10 to 500 nM.
To `CCN(CC)CCCOc1ccc(/C(=C\[C@H]2CCC(O)C2)c2ccc(C(F)(F)F)c(=O)[nH]2)cc1Cl` (stereo partly drawn) [Example 1-86, 6-{(E)-1-{3-Chloro-4-[3-(diethylamino)propoxy]phenyl}-2-[(1S)-3-hydroxycyclopentyl]ethenyl}-3-(trifluoromethyl)pyridin-2(1H)-one] belongs 500 to 3000 nM.
To `O=C1CC[C@H](/C=C(\c2ccc(C(F)(F)F)cc2)c2ccc(OC3CCCC3)c(=O)[nH]2)N1` [Example 4-168, 3-(Cyclopentyloxy)-6-{(E)-2-[(2R)-5-oxopyrrolidin-2-yl]-1-[4-(trifluoromethyl)phenyl]ethenyl}pyridin-2(1H)-one] belongs 500 to 3000 nM; to `CS(=O)(=O)c1ccc(/C(=C\C2CCCC2)c2ccc(C(F)(F)F)c(=O)[nH]2)cc1` [Example 1-28, 6-{(E)-2-Cyclopentyl-1-[4-(methylsulfonyl)phenyl]ethenyl}-3-(trifluoromethyl)pyridin-2(1H)-one], 500 to 3000 nM; to `CCOc1ccc(C(C[C@H]2CCC(=O)N2)c2ccc(Cl)c(=O)[nH]2)cc1F` (stereo partly drawn) [Example 4-241, 3-Chloro-6-{1-(4-ethoxy-3-fluorophenyl)-2-[(2R)-5-oxopyrrolidin-2-yl]ethyl}pyridin-2(1H)-one], 3000 to 10000 nM.
To `CCOc1ccc(C(C[C@H]2CCC(=O)N2)c2ccc(C3CC3)c(=O)[nH]2)cc1Cl` (single isomer, unassigned) [Example 4-87] belongs 10 to 500 nM; to `O=C1CC[C@H](/C=C(\c2ccc(OC(F)(F)F)cc2)c2ccc(Cl)c(=O)[nH]2)N1` [Example 4-30, 3-Chloro-6-{(E)-2-[(2R)-5-oxopyrrolidin-2-yl]-1-[4-(trifluoromethoxy)phenyl]ethenyl}pyridin-2(1H)-one], 500 to 3000 nM.
Turning to `CC(C)c1ccc(C(C[C@H]2CCC(=O)N2)c2ccc(Cl)c(=O)[nH]2)cc1Cl` (single isomer, unassigned) [Example 4-86], the EC50 fell in the range of 10 to 500 nM.
The same measure for `CSc1ccc(/C(=C\[C@H]2CCC(=O)C2)c2ccc(C3CC3)c(=O)[nH]2)cc1Cl` [Example 1-71, 6-{(E)-1-[3-Chloro-4-(methylsulfanyl)phenyl]-2-[(1S)-3-oxocyclopentyl]ethenyl}-3-cyclopropylpyridin-2(1H)-one]: 10 to 500 nM.
The same measure for `CCc1ccc(/C(=C/C2CCCC2)c2ccc(S(=O)(=O)CCCO)cc2)[nH]c1=O` [Example 1-13, 6-[(E)-2-Cyclopentyl-1-{4-[(3-hydroxypropyl)sulfonyl]phenyl}ethenyl]-3-ethylpyridin-2(1H)-one]: 10 to 500 nM; for `CCNCCCOc1ccc(/C(=C\C2CCCC2)c2ccc(C3CC3)c(=O)[nH]2)cc1Cl` [Example 1-44, 6-[(E)-1-{3-Chloro-4-[3-(ethylamino)propoxy]phenyl}-2-cyclopentylethenyl]-3-cyclopropylpyridin-2(1H)-one]: 500 to 3000 nM.
The same measure for `O=C1CC[C@H](CC(c2ccc(C3CC3)c(=O)[nH]2)c2ccc(C(F)(F)F)cc2F)N1` (single isomer, unassigned) [Example 4-333]: 3000 to 10000 nM; for `CC(C)c1ccc(/C(=C\[C@H]2CCC(=O)N2C)c2ccc(Cl)c(=O)[nH]2)cc1` [Example 4-147, 3-Chloro-6-{(E)-2-[(2R)-1-methyl-5-oxopyrrolidin-2-yl]-1-[4-(propan-2-yl)phenyl]ethenyl}pyridin-2(1H)-one]: 10 to 500 nM; for `CSc1ccc(/C(=C\C2CCCC2)c2ccc(C)c(=O)[nH]2)cc1Cl` [Example 1-18, 6-{(E)-1-[3-Chloro-4-(methylsulfanyl)phenyl]-2-cyclopentylethenyl}-3-methylpyridin-2(1H)-one]: 10 to 500 nM.
On to `CCc1ccc(C(C[C@H]2CCC(=O)N2)c2ccc(C3CC3)c(=O)[nH]2)cc1` (single isomer, unassigned) [Example 4-303], for which the EC50 was 3000 to 10000 nM.
The compound `CCOc1ccc(/C(=C\[C@H]2CCC(=O)N2)c2ccc(Cl)c(=O)[nH]2)cc1Cl` [Example 4-2, 3-Chloro-6-{(E)-1-(3-chloro-4-ethoxyphenyl)-2-[(2R)-5-oxopyrrolidin-2-yl]ethenyl}pyridin-2(1H)-one] returned an EC50 of 500 to 3000 nM.
In turn, `COCCCc1ccc(C(C[C@H]2CCC(=O)N2)c2ccc(Cl)c(=O)[nH]2)cc1` (single isomer, unassigned) [Example 4-338] yielded an EC50 of 500 to 3000 nM.
The same measure for `CCc1ccc(/C(=C/C2CCCC2)c2ccc(S(=O)(=O)CCCN(CC)CC)c(Cl)c2)[nH]c1=O` [Example 1-27, 6-[(E)-1-(3-Chloro-4-{[3-(diethylamino)propyl]sulfonyl}phenyl)-2-cyclopentylethenyl]-3-ethylpyridin-2(1H)-one]: 10 to 500 nM; for `CC(C)Cc1ccc(/C(=C\[C@H]2CCC(=O)N2)c2ccc(Cl)c(=O)[nH]2)cc1` [Example 4-29, 3-Chloro-6-{(E)-1-[4-(2-methylpropyl)phenyl]-2-[(2R)-5-oxopyrrolidin-2-yl]ethenyl}pyridin-2(1H)-one]: 500 to 3000 nM.
